The target in the assay is T1, Recombinant human CETP (Homo sapiens, UniProt P11597).
T1 construct: made in house; host or cells: CHO cells (secreted into conditioned medium)
T1 sequence (P11597 18-493): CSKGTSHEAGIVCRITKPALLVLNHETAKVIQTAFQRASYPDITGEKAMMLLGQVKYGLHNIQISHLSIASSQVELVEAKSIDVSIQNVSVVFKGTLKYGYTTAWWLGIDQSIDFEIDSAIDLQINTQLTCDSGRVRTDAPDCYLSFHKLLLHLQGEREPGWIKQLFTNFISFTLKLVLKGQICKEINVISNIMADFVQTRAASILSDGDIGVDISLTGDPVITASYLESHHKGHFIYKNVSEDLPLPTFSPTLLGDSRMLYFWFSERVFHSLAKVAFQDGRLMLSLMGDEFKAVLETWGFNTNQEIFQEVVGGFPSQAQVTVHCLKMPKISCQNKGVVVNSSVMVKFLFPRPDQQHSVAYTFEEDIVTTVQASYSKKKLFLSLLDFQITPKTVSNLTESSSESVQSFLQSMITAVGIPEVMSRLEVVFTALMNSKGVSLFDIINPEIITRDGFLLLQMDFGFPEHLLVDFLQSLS
The experiment in a line: CETP in vitro assay (fluorometric assay, Roar Biomedical; cholesterol ester transfer from HDL to LDL). It counts as biochemical. The conditions noted are these: recombinant human CETP from CHO cells; 3 hours at 37° C.; fluorescence 485/535 nm; compound concentrations between 1 nM and 30 μM; read-out: IC50 values for inhibition of CETP. As to the method:
CETP inhibitory activity of compounds of the present invention can be determined in a fluorometric assay purchased from Roar Biomedical, Inc. (New York, N.Y., USA). […] Recombinant human CETP was partially purified from medium conditioned by CETP expressing CHO cells. In a 384 well format 2.5 μl of compound solution in DMSO was combined with 2 μl of donor solution, 2 μl of acceptor solution and 0.8 μl of recombinant human CETP solution in a total volume of 100 μl with assay buffer and incubated for 3 hours at 37° C. The fluorescence intensity was measured at excitation wavelength of 485 nm and emission wavelength of 535 nm. IC50 values are calculated from dose effect curves from compound concentrations between 1 nM and 30 μM.

The term IC50 denotes the concentration needed to halve the response being measured. On to `CC(C)c1nc2c(c3c1[C@@H](c1ccc(C(F)(F)F)cn1)OC31CCOCC1)[C@@H](O)CC(C)(C)[C@H]2O` [5(4), (3S,6R,9S)-4-isopropyl-7,7-dimethyl-3-(5-(trifluoromethyl)pyridin-2-yl)-2′,3′,5′,6,6′,7,8,9-octahydro-3H-spiro[furo[3,4-c]quinoline-1,4′-pyran]-6,9-diol], for which the IC50 was 183 nM.
Regarding `CC(C)c1nc2c(c3c1[C@@H](c1ccc(S(F)(F)(F)(F)F)cc1)OC31CCOCC1)[C@@H](O)CC1(CCC1)[C@H]2O` [4(8), (3R,6R,9S)-4-isopropyl-7,7-(propan-1,3-diyl)-3-(4-(pentafluorosulfanyl)phenyl)-2′,3′,5′,6,6′,7,8,9-octahydro-3H-spiro[furo[3,4-c]quinoline-1,4′-pyran]-6,9-diol], the IC50 was determined as 14 nM.
Regarding `CC(C)c1nc2c(c3c1[C@H](c1ccc(C(F)(F)F)c(F)c1)OC31CCOCC1)[C@@H](O)CC(C)(C)C2` [1(54), (3S,9S)-3-(3-fluoro-4-(trifluoromethyl)phenyl)-4-isopropyl-7,7-dimethyl-2′,3′,5′,6,6′,7,8,9-octahydro-3H-spiro[furo[3,4-c]quinoline-1,4′-pyran]-9-ol], the IC50 came to 1690 nM.
As for `CC(C)c1nc2c(c3c1[C@@H](c1ccc(C(C)(C)C)cc1)OC31CCOCC1)[C@@H](O)CC1(CCC1)C2` [1(63), (3R,9S)-3-(4-tert-butylphenyl)-4-isopropyl-7,7-(propan-1,3-diyl)-2′,3′,5′,6,6′,7,8,9-octahydro-3H-spiro[furo[3,4-c]quinoline-1,4′-pyran]-9-ol], the IC50 worked out at 6 nM.
Take `CC(C)c1nc2c(c3c1[C@@H](c1ccc(S(F)(F)(F)(F)F)cc1)OC31CCCC1)[C@@H](O)CC(C)(C)C2` [1(71), (3′R,9′S)-4′-isopropyl-7′,7′-dimethyl-3′-(4-(pentafluorosulfanyl)phenyl)-6′,7′,8′,9′-tetrahydro-3′H-spiro[cyclopentane-1,1′-furo[3,4-c]quinolin]-9′-ol]: the IC50 was 31 nM.
The value for `CC(C)c1nc2c(c3c1[C@@H](c1ccc(C(F)(F)F)cc1)OC31CCOCC1)[C@@H](O)CC1(CCCC1)C2` [1(57), (3R,9S)-4-isopropyl-7,7-(butan-1,4-diyl)-3-(4-(trifluoromethyl)phenyl)-2′,3′,5′,6,6′,7,8,9-octahydro-3H-spiro[furo[3,4-c]quinoline-1,4′-pyran]-9-ol] was 82 nM; that for `CC(C)c1nc2c(c3c1[C@@H](c1ccc(C(F)(F)F)cn1)OC31CCOCC1)[C@@H](O)CC1(CCC1)[C@H]2O` [5(8), (3S,6R,9S)-4-isopropyl-7,7-(propan-1,3-diyl)-3-(5-(trifluoromethyl)pyridin-2-yl)-2′,3′,5′,6,6′,7,8,9-octahydro-3H-spiro[furo[3,4-c]quinoline-1,4′-pyran]-6,9-diol] was 42 nM; that for `CC(C)c1nc2c(c3c1[C@H](c1ccc(C(F)(F)F)cc1)OC31CCCC1)[C@H](O)CC(C)(C)C2` (single isomer, unassigned) [2 (Diastereomer 1), (3′S,9′R)-4′-isopropyl-7′,7′-dimethyl-3′-(4-(trifluoromethyl)phenyl)-6′,7′,8′,9′-tetrahydro-3′H-spiro[cyclopentane-1,1′-furo[3,4-c]quinolin]-9′-ol] was 699 nM.
`CC(C)c1nc2c(c3c1[C@@H](c1ccc(C(F)(F)F)nc1)OC31CCOCC1)[C@@H](O)CC1(CCC1)C2` [1(52), (3R,9S)-4-isopropyl-7,7-(propan-1,3-diyl)-3-(6-(trifluoromethyl)pyridin-3-yl)-2′,3′,5′,6,6′,7,8,9-octahydro-3H-spiro[furo[3,4-c]quinoline-1,4′-pyran]-9-ol]: the IC50 is 54 nM.
Regarding `CC1(C)Cc2nc(C(C)(C)C)c3c(c2[C@@H](O)C1)C1(CCOCC1)O[C@@H]3c1ccc(C(F)(F)F)cc1` [1(80), (3R,9S)-4-tert-butyl-7,7-dimethyl-3-(4-(trifluoromethyl)phenyl)-2′,3′,5′,6,6′,7,8,9-octahydro-3H-spiro[furo[3,4-c]quinoline-1,4′-pyran]-9-ol], the IC50 came out at 47 nM.
The value for `CC(C)c1nc2c(c3c1[C@@H](c1ccc(C(F)(F)F)c(C#N)c1)OC31CCOCC1)[C@@H](O)CC(C)(C)C2` [1(66), 5-((3R,9S)-9-hydroxy-4-isopropyl-7,7-dimethyl-2′,3′,5′,6,6′,7,8,9-octahydro-3H-spiro[furo[3,4-c]quinoline-1,4′-pyran]-3-yl)-2-(trifluoromethyl)benzonitrile] was 34 nM; that for `CC(C)(C)c1ccc([C@H]2OC3(CCOCC3)c3c2c(C2CCOCC2)nc2c3[C@@H](O)CC(C)(C)[C@H]2O)cc1` [4(13), (3R,6R,9S)-3-(4-tert-butylphenyl)-7,7-dimethyl-4-(tetrahydro-2H-pyran-4-yl)-2′,3′,5′,6,6′,7,8,9-octahydro-3H-spiro[furo[3,4-c]quinoline-1,4′-pyran]-6,9-diol] was 51 nM; that for `CC1(C)Cc2nc(C3CCOCC3)c3c(c2[C@@H](O)C1)C1(CCOCC1)O[C@@H]3c1ccc(C(F)(F)F)c(C#N)c1` [1(74), 5-((3R,9S)-9-hydroxy-7,7-dimethyl-4-(tetrahydro-2H-pyran-4-yl)-2′,3′,5′,6,6′,7,8,9-octahydro-3H-spiro[furo[3,4-c]quinoline-1,4′-pyran]-3-yl)-2-(trifluoromethyl)benzonitrile] was 100 nM.
`CC(C)c1nc2c(c3c1[C@@H](c1ccc(C(F)(F)F)c(C#N)c1)OC31CCOCC1)[C@@H](O)CC1(CCC1)[C@H]2O` [4(10), 5-((3R,6R,9S)-6,9-dihydroxy-4-isopropyl-7,7-(propan-1,3-diyl)-2′,3′,5′,6,6′,7,8,9-octahydro-3H-spiro[furo[3,4-c]quinoline-1,4′-pyran]-3-yl)-2-(trifluoromethyl)benzonitrile]: the IC50 was 15 nM.
With `CC(C)c1nc2c(c3c1[C@@H](c1ccc(C(F)(F)F)cc1F)OC31CCOCC1)[C@@H](O)CC(C)(C)[C@H]2O` [4(5), (3S,6R,9S)-3-(2-fluoro-4-(trifluoromethyl)phenyl)-4-isopropyl-7,7-dimethyl-2′,3′,5′,6,6′,7,8,9-octahydro-3H-spiro[furo[3,4-c]quinoline-1,4′-pyran]-6,9-diol], the IC50 came out at 15 nM.
As to `CC(C)c1nc2c(c3c1[C@@H](c1ccc(C(F)(F)F)cn1)OC31CCOCC1)[C@@H](O)CC(C)(C)[C@@H]2O` [5(3), (3S,6S,9S)-4-isopropyl-7,7-dimethyl-3-(5-(trifluoromethyl)pyridin-2-yl)-2′,3′,5′,6,6′,7,8,9-octahydro-3H-spiro[furo[3,4-c]quinoline-1,4′-pyran]-6,9-diol], the IC50 worked out at 2700 nM.
Turning to `CC1(C)Cc2nc(C3CCOCC3)c3c(c2[C@@H](O)C1)C1(CCOCC1)O[C@@H]3c1ccc(C(C)(C)C)cc1` [1(70), (3R,9S)-3-(4-tert-butylphenyl)-7,7-dimethyl-4-(tetrahydro-2H-pyran-4-yl)-2′,3′,5′,6,6′,7,8,9-octahydro-3H-spiro[furo[3,4-c]quinoline-1,4′-pyran]-9-ol], the IC50 was determined as 57 nM.
Consider `CC(C)c1nc2c(c3c1[C@H](c1ccc(C(F)(F)F)cn1)OC31CCC(F)(F)CC1)[C@@H](O)CC(C)(C)C2` (single isomer, unassigned) [7 (Diastereomer 2), (3′R,9′S)-4,4-difluoro-4′-isopropyl-7′,7′-dimethyl-3′-(5-(trifluoromethyl)pyridin-2-yl)-6′,7′,8′,9′-tetrahydro-3′H-spiro[cyclohexane-1,1′-furo[3,4-c]quinolin]-9′-ol], for which the half-maximal inhibitory concentration (IC50) is 1150 nM.
The value for `CC(C)c1nc2c(c3c1[C@@H](c1ccc(C(F)(F)F)nc1)OC31CCOCC1)[C@@H](O)CC(C)(C)[C@H]2O` [5(5), (3R,6R,9S)-4-isopropyl-7,7-dimethyl-3-(6-(trifluoromethyl)pyridin-3-yl)-2′,3′,5′,6,6′,7,8,9-octahydro-3H-spiro[furo[3,4-c]quinoline-1,4′-pyran]-6,9-diol] was 418 nM; that for `CC(C)c1nc2c(c3c1[C@@H](c1ccc(C(C)(C)C)cc1)OC31CCCC1)[C@@H](O)CC(C)(C)[C@H]2O` [4(3), (3′R,6′R,9′S)-3′-(4-tert-butylphenyl)-4′-isopropyl-7′,7′-dimethyl-6′,7′,8′,9′-tetrahydro-3′H-spiro[cyclopentane-1,1′-furo[3,4-c]quinoline]-6′,9′-diol] was 21 nM.
As to `O[C@H]1CC2(CCC2)Cc2nc(C3CCOCC3)c3c(c21)C1(CCOCC1)O[C@@H]3c1ccc(C(F)(F)F)cn1` [1(75), (3S,9S)-7,7-(propan-1,3-diyl)-4-(tetrahydro-2H-pyran-4-yl)-3-(5-(trifluoromethyl)pyridin-2-yl)-2′,3′,5′,6,6′,7,8,9-octahydro-3H-spiro[furo[3,4-c]quinoline-1,4′-pyran]-9-ol], the IC50 amounted to 288 nM.

(Values after patent publication US9029544B2, “Tricyclic pyridine derivatives, medicaments containing such compounds, their use and process for their preparation” (Boehringer Ingelheim International GmbH, priority 2010, dated 2015).)
